The values that follow come from publication PMC6155628 (Molecules : A Journal of Synthetic Chemistry and Natural …, 2017).

What is called IC50 is the concentration needed to halve the response being measured.

Like-named read-outs stand apart in the source and are kept apart here. Residues, ends and D or L forms follow the SMILES beside them.

One experiment concerns ACE. As to conditions: read-out: IC50 (ACE inhibition), cited from earlier work.
The test system of experiment [1] is spontaneously hypertensive rats (SHR). As to conditions: oral, dose not given, 4 h after administration, tail-cuff, n = 6.
For experiment [2], the target named is Angiotensin converting enzyme (ACE) (Homo sapiens, UniProt P12821). The experiment in a line: biochemical.
Sequence of Angiotensin converting enzyme (ACE) (P12821 30-1306, species assumed): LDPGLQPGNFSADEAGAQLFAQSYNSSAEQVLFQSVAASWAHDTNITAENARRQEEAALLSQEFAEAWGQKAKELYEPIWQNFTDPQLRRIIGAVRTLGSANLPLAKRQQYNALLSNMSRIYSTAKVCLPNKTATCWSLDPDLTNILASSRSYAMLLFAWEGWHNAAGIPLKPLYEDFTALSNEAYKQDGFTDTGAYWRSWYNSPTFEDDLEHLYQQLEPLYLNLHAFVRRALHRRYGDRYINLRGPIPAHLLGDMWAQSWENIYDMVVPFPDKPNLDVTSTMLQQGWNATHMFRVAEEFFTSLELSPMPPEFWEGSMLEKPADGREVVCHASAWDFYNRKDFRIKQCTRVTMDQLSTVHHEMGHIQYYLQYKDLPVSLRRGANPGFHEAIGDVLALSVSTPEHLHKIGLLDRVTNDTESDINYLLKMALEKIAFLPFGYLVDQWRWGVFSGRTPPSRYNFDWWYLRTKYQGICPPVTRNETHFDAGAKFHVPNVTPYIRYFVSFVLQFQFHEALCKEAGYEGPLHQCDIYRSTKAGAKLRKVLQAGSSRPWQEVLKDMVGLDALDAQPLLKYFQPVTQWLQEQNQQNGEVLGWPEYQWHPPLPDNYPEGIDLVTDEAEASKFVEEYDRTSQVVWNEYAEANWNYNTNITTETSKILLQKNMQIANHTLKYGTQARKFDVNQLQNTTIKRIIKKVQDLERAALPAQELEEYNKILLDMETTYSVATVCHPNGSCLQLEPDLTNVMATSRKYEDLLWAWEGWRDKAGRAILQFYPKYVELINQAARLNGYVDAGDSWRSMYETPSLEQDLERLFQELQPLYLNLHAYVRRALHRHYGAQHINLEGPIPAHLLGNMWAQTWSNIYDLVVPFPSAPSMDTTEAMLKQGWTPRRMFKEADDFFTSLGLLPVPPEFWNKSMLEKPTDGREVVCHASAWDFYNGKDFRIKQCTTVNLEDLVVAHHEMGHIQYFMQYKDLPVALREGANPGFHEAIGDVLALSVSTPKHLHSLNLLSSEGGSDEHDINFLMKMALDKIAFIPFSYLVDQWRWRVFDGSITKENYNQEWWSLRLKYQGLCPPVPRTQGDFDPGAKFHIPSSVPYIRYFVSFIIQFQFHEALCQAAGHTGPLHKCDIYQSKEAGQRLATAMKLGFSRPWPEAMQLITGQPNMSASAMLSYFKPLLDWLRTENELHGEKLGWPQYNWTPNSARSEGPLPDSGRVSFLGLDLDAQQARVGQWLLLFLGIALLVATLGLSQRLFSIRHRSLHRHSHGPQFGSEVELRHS
In the next experiment the test system is SHR. As to conditions: cited from earlier work.
Experiment [3] deals with Ehrlich ascites sarcoma cells. As to conditions: Ehrlich ascites sarcoma cells in mice; cited from earlier work. An excerpt: Adlay seed (soft-shelled Job’s tears, Coix larchryma-jobi L. var. ma-yuen Stapf) has been used in traditional Chinese medicine and has been a nourishing food for more than a thousand years. It has been used to treat warts, chapped skin, rheumatism, neuralgia, hypertension as well as being an anti-inflammatory and anticancer agent. An increasing effort had been concentrated on finding active components from adlay. […] The main ingredient of ...

The mark [4] stands for this setting: from haruan myofibrillar protein hydrolysate (proteinase K and thermolysin).

As for VPAAPPK, the 50% inhibitory concentration (IC50) with ACE (setting [4]) was 450 nM. Take `C[C@H](CS)C(=O)N1CCC[C@H]1C(=O)O` [captopril]: the “Maximal decrease of SBP, positive control” value in experiment [1] was “approximately 28.17 mmHg”.

For the compound `C[C@H](NC(=O)CN)C(=O)N[C@@H](C)C(=O)NCC(=O)NCC(=O)N[C@@H](C)C(=O)N[C@@H](Cc1ccccc1)C(=O)O` [GAAGGAF] (H-GAAGGAF-OH), half-maximal inhibition in experiment [2] (IC50) required 14.2 µM. For the compound NGTWFEPP, the 50% inhibitory concentration (IC50) with ACE (setting [4]) was 630 nM.

AWLHPGAPKVF: in the experiment with SHR (single oral, 10 mg/kg), the Antihypertensive duration is reported as 8 h. Also, the “Reduction of SBP” value in the experiment with SHR (single oral, 10 mg/kg, from P. esculenta protein hydrolysate) is “around 30 mmHg”. On to coixenolide [coixenolide (I)], for which the Growth-inhibiting activity entry in experiment [3] is reported as “growth-inhibiting activity”. As to Ala-Tyr, in the experiment with ACE (from corn gluten meal), the concentration for half-maximal inhibition (IC50) was 14200 nM. With AAATP, the “Decrease of SBP” value in the experiment with SHR (SHRs, after 8 h administration, from Spanish dry-cured ham) was “around 25.62 mmHg”.
